Data as given in US20050014788A1, “Piperidine derivatives and their use as modulators of chemokine receptor activity (especially ccr5)” (priority 2001, published 2005).
Where a name gives a salt, the structure may show the parent alone.

molecular target: recombinant human CCR5 receptor (Homo sapiens, UniProt P51681); experiment: MIP-1α radioligand binding assay (scintillation proximity), CHO cell membranes; details: Pic50, negative log (base 10) of IC50 (M); displacement of 0.1 nM iodinated MIP-1α; CHO membranes with recombinant human CCR5; average if tested more than once
Sequence (P51681 whole entry): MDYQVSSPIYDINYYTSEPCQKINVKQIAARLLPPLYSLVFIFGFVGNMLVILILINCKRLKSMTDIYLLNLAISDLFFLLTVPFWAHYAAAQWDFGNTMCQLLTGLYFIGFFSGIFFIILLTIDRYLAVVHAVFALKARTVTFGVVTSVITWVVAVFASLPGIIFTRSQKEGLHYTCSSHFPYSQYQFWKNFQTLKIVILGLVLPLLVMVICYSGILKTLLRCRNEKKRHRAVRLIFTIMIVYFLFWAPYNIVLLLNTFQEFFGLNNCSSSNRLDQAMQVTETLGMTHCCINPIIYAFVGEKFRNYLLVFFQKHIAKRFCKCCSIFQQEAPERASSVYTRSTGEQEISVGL
Description: The ability of compounds to inhibit the binding of MIP-1 α was assessed by an in vitro radioligand binding assay. Membranes were prepared from Chinese hamster ovary cells which expressed the recombinant human CCR5 receptor. These membranes were incubated with 0.1 nM iodinated MIP-1α, scintillation proximity beads and various concentrations of the compounds of the invention in 96-well plates. The amount of iodinated MIP-1α bound to the receptor was determined by scintillation counting.
In Table II the results are presented as Pic50 values. […] (that is 1×10^−6 M) gives a Pic50 of 6.

| SMILES | IC50 |
| --- | --- |
| CCN(C(=O)Cc1ccc(S(C)(=O)=O)cc1)C1CCN(CC[C@@H](c2ccccc2)c2ccc(S(C)(=O)=O)cc2)CC1 [Compound No. 50, (S)-N-[1-{3-phenyl-3-(4-methanesulfonylphenyl)propyl}-4-piperidinyl]-N-ethyl-4 methanesulfonylphenylacetamide] | 8.13e-10 M |
| CCN(C(=O)Cc1ccc(S(C)(=O)=O)cc1)C1CCN(CC[C@H](c2ccc(S(C)(=O)=O)cc2)c2cccc(F)c2)CC1 [compound 51] | 3.72e-10 M |
| CCN(C(=O)Cc1ccc(S(C)(=O)=O)cc1)C1CCN(CC[C@H](c2ccc(S(C)(=O)=O)cc2)c2ccc(F)c(F)c2)CC1 [Compound No. 54, (R)-N-[1-{3-(3,4-fluorophenyl)-3-(4-methanesulfonylphenyl)propyl}-4-piperidinyl]-N-ethyl-4-methanesulfonylphenylacetamide hydrochloride] | 2.14e-08 M |

same assay, conditions: negative log (base 10) of IC50 (M); displacement of 0.1 nM iodinated MIP-1α; CHO membranes with recombinant human CCR5; average if tested more than once

| SMILES | Pic50 |
| --- | --- |
| CCN(C(=O)Cc1ccc(S(C)(=O)=O)cc1)C1CCN(CCC(c2ccc(NC(=O)OC(C)(C)C)cc2)c2cccc(F)c2)CC1 (stereo not shown) [Compound No. 43, N-[1-(3-[3-fluorophenyl]-3-[4-Boc-aminophenyl]propyl)-piperidin-4-yl]-N-ethyl-4-methanesulfonylphenylacetamide] | 7.05 |

same assay, conditions: negative log (base 10) of IC50 (M); displacement of 0.1 nM iodinated MIP-1α; CHO membranes with recombinant human CCR5; average if tested more than once; read-out: Pic50 (converted)

| SMILES | IC50 |
| --- | --- |
| CCN(C(=O)Cc1ccc(S(C)(=O)=O)cc1)C1CCN(CCC(c2ccccc2)c2ccc([S+](C)[O-])cc2)CC1 (stereo not shown) [compound 75] | 1.38e-08 M |
| CCN(C(=O)Cc1ccc(S(C)(=O)=O)cc1)C1CCN(CCC(c2ccc(N)cc2)c2cccc(F)c2)CC1 (stereo not shown) [Compound No. 44, N-[1-(3-[3-fluorophenyl]-3-[4-aminophenyl]propyl)-piperidin-4-yl]-N-ethyl-4-methanesulfonylphenylacetamide hydrochloride] | 1.05e-07 M |
| CCN(C(=O)Cc1ccc(S(C)(=O)=O)cc1)C1CCN(CCC(c2ccccc2)c2ccc(SC)cc2)CC1 (stereo not shown) [Compound No. 41, N-[1-(3-phenyl-3-[4-methanethiophenyl]propyl)-piperidin-4-yl]-N-ethyl-4-methanesulfonylphenylacetamide] | 1.17e-08 M |
| CCN(C(=O)Cc1ccc(S(C)(=O)=O)cc1)C1CCN(CCC(c2ccccc2)c2ccc(NC(=O)NC(C)C)cc2)CC1 (stereo not shown) [compound 42] | 1.32e-08 M |
| CCN(C(=O)Cc1ccc(S(C)(=O)=O)cc1)C1CCN(CCC(c2ccc(NS(C)(=O)=O)cc2)c2cccc(F)c2)CC1 (stereo not shown) [compound 46] | 9.12e-09 M |
| CCN(C(=O)Cc1ccc(S(C)(=O)=O)cc1)C1CCN(CCC(c2ccc(NC(=O)c3ccc(S(C)(=O)=O)cc3)cc2)c2cccc(F)c2)CC1 (stereo not shown) [compound 47] | 3.47e-08 M |
| CCN(C(=O)Cc1ccc(S(C)(=O)=O)cc1)C1CCN(CCC(c2ccccc2)c2ccc(NS(=O)(=O)c3ccccc3)cc2)CC1 (stereo not shown) [compound 28] | 8.51e-07 M |
| CCN(C(=O)Cc1ccc(S(C)(=O)=O)cc1)C1CCN(CCC(c2ccc(NS(C)(=O)=O)cc2)c2cccc(F)c2)CC1 (stereo not shown) [Compound No. 49] | 6.17e-09 M |
| CCN(C(=O)Cc1ccc(S(C)(=O)=O)cc1)C1CCN(CCC(c2ccc(NC(C)=O)cc2)c2cccc(F)c2)CC1 (stereo not shown) [compound 45] | 3.63e-09 M |
